Results on 1 compound are retold here after US20260174739A1 (priority 2022, published 2026).

One data set concerns the target human NET (Homo sapiens, UniProt P23975). The data set is described as follows: NET transporter inhibitory activity test (neurotransmitter transporter uptake assay kit). It is filed as cell-based. The procedure: Transporter inhibition of human DAT and NET expressed in HEK-293 cells was assessed using a neurotransmitter transporter uptake assay kit. The assay was performed as described in the kit instructions, using centanafadine as a positive control. The specific procedures were as follows:
First day cell plating: HEK 293T cells were digested with trypsin, centrifuged, resuspended with a medium, counted, and seeded into a 6 cm culture dish at a density of 3×10^6 cells/well.
Second day cell transfection: HEK 293T cells were subjected to medium exchange, and then A, B tubes were prepared for NET-pcDNA5/FRT plasmid to be transfected. 200 μL of Opti-MEM was added to tube A, and 10 μL of Lipofectamine™ 3000 was added. The mixture was mixed well. 200 μL of Opti-MEM was added to tube B, and 5 μg of NET-pcDNA5/FRT plasmid was added. The mixture was mixed well, and then 10 μL of P3000™ was added to tube B. The mixture was mixed well (plasmid to transfection reagent ratio 1 μg:2 μL). The diluted solution of tube A was added to the diluted solution of tube B. The mixture was mixed well, and incubated at room temperature for 15 min. Finally, the mixture was gently added to the cells that had been subjected to medium exchange, gently shaken to mix, and then incubated overnight in an incubator at 37° C. with a carbon dioxide concentration of 5%. The cells were used for compound functional activity assays 18-20 h after transfection.
• a) After overnight transfection of NET cells, the cells were digested with trypsin, resuspended with DMEM+10% Dialyzed FBS medium, seeded into a 384-well plate at 20000 cells/well, and incubated overnight. Stably transfected DAT cells were digested with trypsin, resuspended with DMEM+10% Dialyzed FBS medium, seeded into a 384-well plate at 2500 cells/well, and incubated overnight. • b) 1× Assay buffer was prepared according to the kit instruction for later use; the positive compound and the test compound were serially diluted with DMSO, and then diluted to 2× with 1× assay buffer. • c) The medium was removed from the 384-well plate by centrifugation. • d) 16 μL of the compound prepared in step b) was added to corresponding experimental wells, wherein an initial concentration of 2× positive control compound was added to the positive control well, and 0.2% DMSO buffer was added to the negative control well. After centrifuging, the plate was incubated at 37° C. for 30 min. • e) A detection reagent was prepared using 1×HBSS, and 16 μL of the detection reagent was added to each well. After centrifuging, the plate was incubated at 37° C. for 60 min. • f) After incubation, the reading at 510 nm under the excitation of the detection wavelength of 425 nm was measured using a microplate reader. Curve fitting and IC50 calculation were performed using GraphPad Prism software nonlinear regression method.

A short description of data set [1]: In vivo metabolism (pharmacokinetic) experiment in mice. Set-up: species or system male ICR mice. To be noted: male, ICR, mouse, po, 10 mg/kg, male ICR mice. The procedure, abridged: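 Fasted (12 h) male ICR mice received compound in 5% DMSO/5% Solutol HS15/90% saline at 2.5 mg/kg iv or 10 mg/kg po. Plasma and brain sampled 0.083–8 h (n=3 per time point) and analysed by LC-MS/MS. Parameters derived by non-compartmental analysis.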

Sequence of human NET (P23975 whole entry): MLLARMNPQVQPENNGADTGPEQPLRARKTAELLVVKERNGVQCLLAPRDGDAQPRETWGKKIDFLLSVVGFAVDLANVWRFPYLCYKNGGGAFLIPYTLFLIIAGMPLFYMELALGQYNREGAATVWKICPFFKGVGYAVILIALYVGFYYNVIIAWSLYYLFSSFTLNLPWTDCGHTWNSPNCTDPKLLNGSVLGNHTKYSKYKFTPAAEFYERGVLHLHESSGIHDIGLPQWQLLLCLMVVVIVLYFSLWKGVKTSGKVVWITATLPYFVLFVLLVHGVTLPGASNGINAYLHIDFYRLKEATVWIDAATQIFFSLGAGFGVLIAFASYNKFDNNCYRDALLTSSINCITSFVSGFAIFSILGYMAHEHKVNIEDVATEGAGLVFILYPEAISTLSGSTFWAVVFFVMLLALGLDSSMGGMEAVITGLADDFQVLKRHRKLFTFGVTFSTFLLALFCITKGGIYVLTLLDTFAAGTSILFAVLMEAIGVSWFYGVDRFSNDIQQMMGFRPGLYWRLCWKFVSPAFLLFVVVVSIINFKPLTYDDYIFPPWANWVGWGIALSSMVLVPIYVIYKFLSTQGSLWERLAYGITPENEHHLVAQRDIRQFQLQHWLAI

Usually IC50 stands for the point on the concentration scale where inhibition reaches its midpoint. Higher therefore signals weaker potency. One may read the Cmax as the maximum level reached in the sampled fluid or tissue. For the compound `CCNC1(c2ccccc2)CCc2nc(N)sc2C1` (racemic) [rac-A5, N^6-ethyl-6-phenyl-4,5,6,7-tetrahydrobenzothiazole-2,6-diamine], at human NET, the IC50 was determined as 3.3 µM. For the same compound, the bioavailability in data set [1] (oral 10 mg/kg vs iv 2.5 mg/kg, read-out: F (%)) is 63%. Besides, the AUC(0-inf) in data set [1] (oral 10 mg/kg, plasma, read-out: AUC0-inf(po)) was 1010 ng·h/mL. Also, the Cmax in data set [1] (oral 10 mg/kg, plasma, read-out: Cmax (po)) came to 250 ng/mL. Besides, the half-life in data set [1] (oral 10 mg/kg, plasma, read-out: T1/2 (po) (converted)) was 2.43 h.
